Assays:
human PHD2 [1] = target: T1, human PHD2 (Homo sapiens (Human), UniProt Q9GZT9); experiment: Test 2: human PHD2 inhibitory activity, fluorescence polarization assay of HIF-1α peptide proline hydroxylation; type: biochemical; settings: test compound's concentration 1 μM; Test 2, fluorescence polarization assay; read-out: Percent inhibition (% at 1 μM)
Outline: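 A 19-mer HIF-1α peptide served as substrate, with the reaction started by 40 ng/well human PHD2 (cell lysate of NM_022051-transfected cells) and run 20 min at 30° C. before EDTA stop. Hydroxylated product bound anti-HIF-OH antibody, read by fluorescence polarization versus no-compound control.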

human PHD2 [2] = target: T1, human PHD2; experiment: Test 1: human PHD2 inhibitory activity, [14C]-2-oxoglutarate to [14C]-succinic acid radiometric assay with HIF-1α peptide; type: biochemical; settings: test compound's concentration 1 μM; Test 1, [14C]-2-oxoglutarate radiometric assay; read-out: Percent inhibition (% at 1 μM)
Outline: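 Activity was measured by radiometric counting of [14C]-succinic acid formed during prolyl hydroxylation of a 19-mer HIF-1α peptide, after DNPH removal of residual [14C]-2-oxoglutarate. Baculovirus-expressed human PHD2 lysate (4 μg/well) reacted for 15 min at 37° C. Substrate-free and compound-free wells served as reference points for inhibition.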

T1 sequence (Q9GZT9 whole entry): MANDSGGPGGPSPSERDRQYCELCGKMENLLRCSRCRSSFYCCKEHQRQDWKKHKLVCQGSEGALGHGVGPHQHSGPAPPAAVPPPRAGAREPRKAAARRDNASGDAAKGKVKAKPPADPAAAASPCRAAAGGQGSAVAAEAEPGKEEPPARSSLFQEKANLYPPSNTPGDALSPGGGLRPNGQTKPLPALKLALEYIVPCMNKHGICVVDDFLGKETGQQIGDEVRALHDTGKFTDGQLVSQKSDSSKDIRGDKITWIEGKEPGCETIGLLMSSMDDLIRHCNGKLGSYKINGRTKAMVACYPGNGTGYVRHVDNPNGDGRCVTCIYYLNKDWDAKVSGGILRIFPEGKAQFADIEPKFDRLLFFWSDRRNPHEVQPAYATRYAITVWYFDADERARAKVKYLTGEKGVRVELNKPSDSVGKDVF

| Compound | inhibition at 1 µM (human PHD2 [1]) [%] | inhibition at 1 µM (human PHD2 [2]) [%] |
| --- | --- | --- |
| Cc1ccc(CN2CCC(O)=C(C(=O)NCC(=O)O)C2=O)cc1C(F)(F)F [Ex. 1-129] | 80 | 71 |
| O=C(O)CNC(=O)C1=C(O)CC2(CCC2)N(Cc2ccc(-c3ccccn3)cc2)C1=O [Ex. 1-130] | 90 | 89 |
| O=C(O)CNC(=O)C1=C(O)CC2(CCC2)N(Cc2cnc(-c3ccccc3)s2)C1=O [Ex. 1-131] | 96 | 93 |
| O=C(O)CNC(=O)C1=C(O)CC2(COC2)N(CC2CCC(c3ccccc3)CC2)C1=O (stereo not drawn) [Ex. 1-132] | 94 | 103 |
| O=C(O)CNC(=O)C1=C(O)CC2(COC2)N(Cc2ccc(-c3ccc(C(F)(F)F)cc3)cc2)C1=O [Ex. 1-133] | 97 | 104 |
| O=C(O)CNC(=O)C1=C(O)CCN(Cc2ccc(C(F)(F)F)c(F)c2F)C1=O [Ex. 1-134] | 85 | 86 |
| O=C(O)CNC(=O)C1=C(O)CCN(Cc2c(F)cc(C(F)(F)F)cc2F)C1=O [Ex. 1-135] | 78 | 78 |
| O=C(O)CNC(=O)C1=C(O)CCN(Cc2ccc(OC(F)(F)C(F)F)cc2)C1=O [Ex. 1-136] | 88 | 91 |
| O=C(O)CNC(=O)C1=C(O)CC2(CCC2)N(CC2CCC(c3ccccc3)CC2)C1=O (stereo not drawn) [Ex. 1-137] | 92 | 78 |
| CC(C)(C)c1ccc(-c2ccc(CN3C(=O)C(C(=O)NCC(=O)O)=C(O)CC34COC4)cc2)cc1 [Ex. 1-138] | 97 | 83 |
| O=C(O)CNC(=O)C1=C(O)CCN(Cc2ccc(C(F)(F)C(F)(F)F)cc2)C1=O [Ex. 1-140] | 85 | 79 |
| O=C(O)CNC(=O)C1=C(O)CC2(CCCCC2)N(Cc2ccc(C(F)(F)F)nc2)C1=O [Ex. 1-141] | 62 | 64 |
| O=C(O)CNC(=O)C1=C(O)CC2(CCCCC2)N(Cc2ccc(C(F)(F)F)cn2)C1=O [Ex. 1-142] | 52 | 54 |
| O=C(O)CNC(=O)C1=C(O)C2CCCCC2N(Cc2ccc(C(F)(F)F)cc2)C1=O (stereo not drawn) [Ex. 1-143] | 65 | 41 |
| O=C(O)CNC(=O)C1=C(O)CCN(Cc2ccc(Br)cc2F)C1=O [Ex. 1-145] | 83 | 88 |
| CC(c1ccc(C(F)(F)F)cc1)N1CCC(O)=C(C(=O)NCC(=O)O)C1=O (stereo not drawn) [Ex. 1-146] | 70 | 69 |
| O=C(O)CNC(=O)C1=C(O)C2(CC2)CN(Cc2ccc(C(F)(F)F)cc2)C1=O [Ex. 1-147] | 88 | 84 |
| O=C(O)CNC(=O)C1=C(O)CCN(Cc2ccc3c(c2)OC(F)(F)O3)C1=O [Ex. 1-152] | 83 | 82 |
| CCC(c1ccc(C(F)(F)F)cc1)N1CCC(O)=C(C(=O)NCC(=O)O)C1=O (stereo not drawn) [Ex. 1-153] | 63 | 64 |
| O=C(O)CNC(=O)C1=C(O)CC2(CCC2)N(Cc2ccc(OC(F)(F)F)cc2)C1=O [Ex. 1-154] | 81 | 77 |

| Compound | inhibition at 1 µM (human PHD2 [1]) [%] | inhibition at 1 µM (human PHD2 [2]) [%] |
| --- | --- | --- |
| O=C(O)CNC(=O)C1=C(O)CC2(CCCC2)N(Cc2ccc(C(F)(F)F)cc2)C1=O [Ex. 1-156] | 80 | 70 |
| O=C(O)CNC(=O)C1=C(O)CCN(Cc2ccc(OC(F)(F)F)c(Cl)c2)C1=O [Ex. 1-159] | 90 | 78 |
| O=C(O)CNC(=O)C1=C(O)CCN(Cc2ccc(Cl)c(OC(F)(F)F)c2)C1=O [Ex. 1-160] | 85 | 74 |
| CC1(C)CC(O)=C(C(=O)NCC(=O)O)C(=O)N1Cc1ccc(OC(F)(F)F)c(Cl)c1 [Ex. 1-164] | 66 | 49 |
| CC1(C)CC(O)=C(C(=O)NCC(=O)O)C(=O)N1Cc1ccc(Cl)c(OC(F)(F)F)c1 [Ex. 1-165] | 55 | 42 |
| O=C(O)CNC(=O)C1=C(O)CC2(CCC2)N(Cc2ccc(Cl)c(Cl)c2)C1=O [Ex. 1-167] | 88 | 80 |
| COc1ccc(CN2C(=O)C(C(=O)NCC(=O)O)=C(O)CC2(C)C)cc1OC(F)(F)F [Ex. 1-169] | 43 | 28 |
| Cc1cc(CN2C(=O)C(C(=O)NCC(=O)O)=C(O)CC2(C)C)cc(C)c1OC(F)F [Ex. 1-170] | 45 | 35 |
| O=C(O)CNC(=O)C1=C(O)CCN(CCc2cccc(C(F)(F)F)c2)C1=O [Ex. 1-173] | 78 | 64 |
| CC1(C)CN(Cc2ccc(C(F)(F)F)cc2)C(=O)C(C(=O)NCC(=O)O)=C1O [Ex. 1-174] | 74 | 59 |
| CC1(C)C(O)=C(C(=O)NCC(=O)O)C(=O)N(Cc2ccc(C(F)(F)F)cc2)C1(C)C [Ex. 1-175] | 56 | 32 |
| O=C(O)CNC(=O)C1=C(O)CCN(CCc2ccc(C(F)(F)F)cc2)C1=O [Ex. 1-176] | 80 | 74 |
| O=C(O)CNC(=O)C1=C(O)CC2(CCC2)N(Cc2ccc(-c3ccc(F)cc3)cc2)C1=O [Ex. 1-178] | 92 | 81 |
| CCC1(CC)CC(O)=C(C(=O)NCC(=O)O)C(=O)N1Cc1ccc(C(F)(F)F)cc1 [Ex. 1-183] | 50 | 39 |
| Cc1ccc(CN2C(=O)C(C(=O)NCC(=O)O)=C(O)CC2(C)C)cc1F [Ex. 1-184] | 60 | 59 |
| O=C(O)CNC(=O)C1=C(O)CC(CCc2ccccc2)N(Cc2ccc(C(F)(F)F)cc2)C1=O (stereo not drawn) [Ex. 1-185] | 81 | 69 |
| CC1(C)CC(O)=C(C(=O)NCC(=O)O)C(=O)N1Cc1ccc(OCCCC(F)(F)F)cc1 [Ex. 1-186] | 77 | 64 |
| Cc1cc(CN2C(=O)C(C(=O)NCC(=O)O)=C(O)CC2(C)C)ccc1OCCCC(F)(F)F [Ex. 1-187] | 74 | 47 |
| CC1(C)CC(O)=C(C(=O)NCC(=O)O)C(=O)N1Cc1ccc(OC(CF)CF)c(Cl)c1 [Ex. 1-188] | 63 | 44 |
| Cc1cc(CN2C(=O)C(C(=O)NCC(=O)O)=C(O)CC2(C)C)ccc1OC(CF)CF [Ex. 1-189] | 60 | 53 |

The next lines start with the values.

| inhibition at 1 µM (human PHD2 [1]) [%] | inhibition at 1 µM (human PHD2 [2]) [%] | Compound |
| --- | --- | --- |
| 78 | 72 | O=C(O)CNC(=O)C1=C(O)CCN(Cc2ccc(F)cc2)C1=O [Ex. 1-139] |
| 85 | 76 | CC1CN(Cc2ccc(Br)cc2)C(=O)C(C(=O)NCC(=O)O)=C1O (stereo not drawn) [Ex. 1-144] |
| 82 | 78 | CC1CC(O)=C(C(=O)NCC(=O)O)C(=O)N1Cc1ccc(Br)cc1 (stereo not drawn) [Ex. 1-148] |
| 74 | 74 | CC1CC(O)=C(C(=O)NCC(=O)O)C(=O)N1Cc1ccc(OC(F)(F)F)cc1 (stereo not drawn) [Ex. 1-149] |
| 71 | 63 | CC1(C)CC(O)=C(C(=O)NCC(=O)O)C(=O)N1Cc1ccc(Br)cc1 [Ex. 1-150] |
| 63 | 57 | CC1(C)CC(O)=C(C(=O)NCC(=O)O)C(=O)N1Cc1ccc(OC(F)(F)F)cc1 [Ex. 1-151] |
| 83 | 82 | O=C(O)CNC(=O)C1=C(O)CC2(CCC2)N(Cc2ccc(Br)cc2)C1=O [Ex. 1-155] |
| 73 | 67 | CC1(C)CC(O)=C(C(=O)NCC(=O)O)C(=O)N1Cc1ccc(Cl)cc1 [Ex. 1-157] |
| 75 | 67 | CC1(C)CC(O)=C(C(=O)NCC(=O)O)C(=O)N1Cc1ccc(Cl)c(Cl)c1 [Ex. 1-158] |
| 62 | 62 | CC1(C)CC(O)=C(C(=O)NCC(=O)O)C(=O)N1Cc1ccc(OC(F)F)cc1 [Ex. 1-161] |
| 77 | 78 | CC1CN(Cc2ccc(Cl)cc2)C(=O)C(C(=O)NCC(=O)O)=C1O (stereo not drawn) [Ex. 1-162] |
| 90 | 84 | CC1CN(Cc2ccc(Cl)c(Cl)c2)C(=O)C(C(=O)NCC(=O)O)=C1O (stereo not drawn) [Ex. 1-163] |
| 86 | 82 | O=C(O)CNC(=O)C1=C(O)CC2(CCC2)N(Cc2ccc(Cl)cc2)C1=O [Ex. 1-166] |
| 82 | 81 | CC1CC(O)=C(C(=O)NCC(=O)O)C(=O)N1Cc1ccc(Cl)cc1 (stereo not drawn) [Ex. 1-171] |
| 79 | 77 | CC1CC(O)=C(C(=O)NCC(=O)O)C(=O)N1Cc1ccc(Cl)c(Cl)c1 (stereo not drawn) [Ex. 1-172] |
| 92 | 93 | CC1CC(O)=C(C(=O)NCC(=O)O)C(=O)N1Cc1ccc(-c2ccc(F)cc2)cc1 (stereo not drawn) [Ex. 1-177] |
| 49 | 44 | Cc1cc(CN2C(=O)C(C(=O)NCC(=O)O)=C(O)CC2(C)C)ccc1F [Ex. 1-179] |
| 65 | 54 | Cc1cc(CN2C(=O)C(C(=O)NCC(=O)O)=C(O)CC2(C)C)ccc1Cl [Ex. 1-180] |
| 83 | 73 | O=C(O)CNC(=O)C1=C(O)CC(Cc2ccccc2)N(Cc2ccc(C(F)(F)F)cc2)C1=O (stereo not drawn) [Ex. 1-181] |
| 71 | 77 | CCC1CC(O)=C(C(=O)NCC(=O)O)C(=O)N1Cc1ccc(C(F)(F)F)cc1 (stereo not drawn) [Ex. 1-182] |

— US9422240B2, “Partially saturated nitrogen-containing heterocyclic compound” (TAISHO PHARMACEUTICAL CO., LTD, priority 2012, dated 2016)
